Results: US20150307520A1, “NOVEL HETEROARYL AND HETEROCYCLE COMPOUNDS, COMPOSITIONS AND METHODS THEREOF” (HUTCHISON MEDIPHARMA LIMITED, priority 2012, published 2015)

What was measured:
Format in all cases: biochemical
p110β/p85α = p110β/p85α (Homo sapiens, UniProt P42338); assay: Transcreener KINASE Assay, kinase inhibition of p110β/p85α; details: for PI3Kβ IH % @ 1 uM: 1 uM test compound; for IC50: read-out: PI3Kβ IC50
Procedure, shortened: (§1)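 Recombinant PI3K/p85α heterodimers were incubated with compound (2% DMSO final) for 80 min at room temperature in 50 mM HEPES, 100 mM NaCl, 1 mM EGTA, 0.03% CHAPS, 3 mM MgCl2, 1 mM DTT, with substrate added as a 30 uM PIP2/10 uM ATP mix. ADP was detected by competitive fluorescence polarization immunoassay.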

p110δ/p85α = p110δ/p85α (Homo sapiens, UniProt O00329); assay: Transcreener KINASE Assay, kinase inhibition of p110δ/p85α; details: for PI3Kδ IH % @ 1 uM: 1 uM test compound; for IC50: read-out: PI3Kδ IC50
p110δ/p85α, sequence (O00329 whole entry): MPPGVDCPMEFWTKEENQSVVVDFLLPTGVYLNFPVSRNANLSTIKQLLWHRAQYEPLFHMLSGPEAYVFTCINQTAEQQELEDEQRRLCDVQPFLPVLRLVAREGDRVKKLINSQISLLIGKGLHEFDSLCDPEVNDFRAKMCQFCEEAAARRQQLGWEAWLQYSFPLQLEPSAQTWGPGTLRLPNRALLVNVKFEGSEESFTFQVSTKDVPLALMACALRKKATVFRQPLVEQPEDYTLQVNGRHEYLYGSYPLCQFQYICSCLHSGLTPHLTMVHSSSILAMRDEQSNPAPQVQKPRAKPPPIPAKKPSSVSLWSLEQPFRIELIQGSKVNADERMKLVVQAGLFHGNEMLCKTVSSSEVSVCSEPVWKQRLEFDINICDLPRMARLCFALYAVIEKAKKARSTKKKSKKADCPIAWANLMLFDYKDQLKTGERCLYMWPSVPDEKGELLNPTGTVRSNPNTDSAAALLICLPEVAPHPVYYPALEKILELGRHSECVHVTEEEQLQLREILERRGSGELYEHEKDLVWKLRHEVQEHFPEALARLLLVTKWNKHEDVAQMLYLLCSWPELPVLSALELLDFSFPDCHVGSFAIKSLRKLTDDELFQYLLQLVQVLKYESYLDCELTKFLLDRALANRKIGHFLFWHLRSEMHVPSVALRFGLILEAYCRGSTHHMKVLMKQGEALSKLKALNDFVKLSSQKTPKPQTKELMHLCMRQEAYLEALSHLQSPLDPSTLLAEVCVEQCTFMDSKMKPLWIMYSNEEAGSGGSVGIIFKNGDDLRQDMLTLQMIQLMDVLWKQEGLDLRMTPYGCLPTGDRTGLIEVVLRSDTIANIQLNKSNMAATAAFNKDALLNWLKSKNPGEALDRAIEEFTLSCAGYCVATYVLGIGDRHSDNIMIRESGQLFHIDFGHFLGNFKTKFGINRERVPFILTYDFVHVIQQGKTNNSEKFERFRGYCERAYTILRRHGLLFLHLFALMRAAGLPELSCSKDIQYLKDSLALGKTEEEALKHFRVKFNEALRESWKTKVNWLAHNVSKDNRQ
p110δ/p85α, sequence (P27986 whole entry partner): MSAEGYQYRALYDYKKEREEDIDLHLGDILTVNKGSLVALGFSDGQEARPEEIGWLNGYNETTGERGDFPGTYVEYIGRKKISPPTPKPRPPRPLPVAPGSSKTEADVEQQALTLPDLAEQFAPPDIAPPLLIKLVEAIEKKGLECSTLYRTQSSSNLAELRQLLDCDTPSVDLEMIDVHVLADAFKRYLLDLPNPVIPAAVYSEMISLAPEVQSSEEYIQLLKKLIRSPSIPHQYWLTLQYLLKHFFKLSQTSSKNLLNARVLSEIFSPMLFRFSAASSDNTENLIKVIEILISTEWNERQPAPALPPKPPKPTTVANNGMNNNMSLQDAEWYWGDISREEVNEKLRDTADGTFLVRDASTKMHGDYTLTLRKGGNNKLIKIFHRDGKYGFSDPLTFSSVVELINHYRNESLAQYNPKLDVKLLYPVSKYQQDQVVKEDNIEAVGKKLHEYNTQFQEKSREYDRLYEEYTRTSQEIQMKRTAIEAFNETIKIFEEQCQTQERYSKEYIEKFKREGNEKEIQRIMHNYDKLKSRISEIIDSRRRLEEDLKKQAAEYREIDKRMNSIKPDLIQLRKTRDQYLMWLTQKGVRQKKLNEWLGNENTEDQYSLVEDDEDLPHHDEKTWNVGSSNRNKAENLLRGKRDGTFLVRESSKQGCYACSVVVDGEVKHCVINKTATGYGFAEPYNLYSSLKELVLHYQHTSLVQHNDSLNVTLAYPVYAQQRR
Procedure, shortened: as §1

p110γ = p110γ (Homo sapiens, UniProt P48736); assay: Transcreener KINASE Assay, kinase inhibition of p110γ; details: for PI3Kγ IH % @ 1 uM: 1 uM test compound; for IC50: read-out: PI3Kγ IC50
p110γ, sequence (P48736 whole entry): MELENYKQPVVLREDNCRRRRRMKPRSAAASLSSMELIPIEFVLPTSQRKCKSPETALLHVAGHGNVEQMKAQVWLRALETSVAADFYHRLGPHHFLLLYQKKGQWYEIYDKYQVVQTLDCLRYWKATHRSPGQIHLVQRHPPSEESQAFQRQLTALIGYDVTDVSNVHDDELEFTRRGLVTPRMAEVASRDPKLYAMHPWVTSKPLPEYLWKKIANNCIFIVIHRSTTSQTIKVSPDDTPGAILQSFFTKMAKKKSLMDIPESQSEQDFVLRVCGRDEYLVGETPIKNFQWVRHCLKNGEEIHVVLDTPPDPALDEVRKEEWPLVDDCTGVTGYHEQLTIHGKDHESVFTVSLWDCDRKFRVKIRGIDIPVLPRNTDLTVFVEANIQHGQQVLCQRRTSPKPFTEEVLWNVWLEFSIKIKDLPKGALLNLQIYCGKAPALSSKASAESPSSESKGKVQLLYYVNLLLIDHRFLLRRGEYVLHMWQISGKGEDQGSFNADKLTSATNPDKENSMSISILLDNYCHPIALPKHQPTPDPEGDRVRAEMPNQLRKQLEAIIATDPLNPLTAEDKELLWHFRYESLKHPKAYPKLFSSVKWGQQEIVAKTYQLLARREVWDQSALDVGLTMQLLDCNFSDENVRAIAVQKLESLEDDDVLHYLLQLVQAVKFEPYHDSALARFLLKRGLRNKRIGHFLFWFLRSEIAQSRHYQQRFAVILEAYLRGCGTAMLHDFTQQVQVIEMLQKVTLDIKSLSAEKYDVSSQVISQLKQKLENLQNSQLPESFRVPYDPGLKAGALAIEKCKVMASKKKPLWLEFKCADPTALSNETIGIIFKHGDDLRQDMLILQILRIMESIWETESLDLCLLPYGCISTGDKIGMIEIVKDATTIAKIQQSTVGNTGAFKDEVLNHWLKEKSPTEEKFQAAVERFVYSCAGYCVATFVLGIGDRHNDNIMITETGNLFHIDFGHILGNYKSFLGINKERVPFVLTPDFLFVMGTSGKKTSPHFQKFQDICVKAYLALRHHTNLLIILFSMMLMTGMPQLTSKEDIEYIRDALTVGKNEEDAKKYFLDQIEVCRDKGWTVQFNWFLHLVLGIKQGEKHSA
Procedure, shortened: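 FP read-out: far-red competitive immunoassay sensing ADP produced by recombinant p110/p85 or p110γ enzyme. Reaction 80 min RT, then detection mix 60 min RT. IC50 from curve fit.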

p110β/p85α, sequence (P42338 whole entry): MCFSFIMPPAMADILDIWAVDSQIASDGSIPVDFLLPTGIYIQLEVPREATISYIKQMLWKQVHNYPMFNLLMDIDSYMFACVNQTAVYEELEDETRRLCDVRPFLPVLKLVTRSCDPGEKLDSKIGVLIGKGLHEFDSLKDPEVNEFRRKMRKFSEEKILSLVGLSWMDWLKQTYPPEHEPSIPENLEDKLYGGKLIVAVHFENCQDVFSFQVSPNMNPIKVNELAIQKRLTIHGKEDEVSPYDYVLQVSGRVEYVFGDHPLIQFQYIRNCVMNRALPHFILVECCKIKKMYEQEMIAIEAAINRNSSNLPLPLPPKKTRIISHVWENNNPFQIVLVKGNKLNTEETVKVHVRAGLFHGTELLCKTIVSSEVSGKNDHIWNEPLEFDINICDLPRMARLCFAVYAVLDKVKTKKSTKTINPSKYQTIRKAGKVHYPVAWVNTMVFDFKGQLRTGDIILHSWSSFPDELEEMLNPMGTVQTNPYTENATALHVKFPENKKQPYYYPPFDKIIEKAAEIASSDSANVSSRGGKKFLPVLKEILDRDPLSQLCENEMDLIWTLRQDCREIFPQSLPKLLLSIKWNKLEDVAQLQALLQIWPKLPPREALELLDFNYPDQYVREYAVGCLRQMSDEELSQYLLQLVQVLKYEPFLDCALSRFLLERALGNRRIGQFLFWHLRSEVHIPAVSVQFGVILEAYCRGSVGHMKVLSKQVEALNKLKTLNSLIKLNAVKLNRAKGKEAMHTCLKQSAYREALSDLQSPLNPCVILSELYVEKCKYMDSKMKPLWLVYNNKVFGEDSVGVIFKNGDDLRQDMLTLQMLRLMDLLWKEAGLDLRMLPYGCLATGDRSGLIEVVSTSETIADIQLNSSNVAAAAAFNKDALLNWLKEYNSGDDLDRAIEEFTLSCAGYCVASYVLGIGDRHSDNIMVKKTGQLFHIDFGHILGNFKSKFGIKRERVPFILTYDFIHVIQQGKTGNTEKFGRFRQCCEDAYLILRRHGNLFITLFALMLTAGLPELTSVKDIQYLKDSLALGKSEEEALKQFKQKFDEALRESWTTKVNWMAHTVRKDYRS
p110β/p85α, sequence (P27986 2-724 partner): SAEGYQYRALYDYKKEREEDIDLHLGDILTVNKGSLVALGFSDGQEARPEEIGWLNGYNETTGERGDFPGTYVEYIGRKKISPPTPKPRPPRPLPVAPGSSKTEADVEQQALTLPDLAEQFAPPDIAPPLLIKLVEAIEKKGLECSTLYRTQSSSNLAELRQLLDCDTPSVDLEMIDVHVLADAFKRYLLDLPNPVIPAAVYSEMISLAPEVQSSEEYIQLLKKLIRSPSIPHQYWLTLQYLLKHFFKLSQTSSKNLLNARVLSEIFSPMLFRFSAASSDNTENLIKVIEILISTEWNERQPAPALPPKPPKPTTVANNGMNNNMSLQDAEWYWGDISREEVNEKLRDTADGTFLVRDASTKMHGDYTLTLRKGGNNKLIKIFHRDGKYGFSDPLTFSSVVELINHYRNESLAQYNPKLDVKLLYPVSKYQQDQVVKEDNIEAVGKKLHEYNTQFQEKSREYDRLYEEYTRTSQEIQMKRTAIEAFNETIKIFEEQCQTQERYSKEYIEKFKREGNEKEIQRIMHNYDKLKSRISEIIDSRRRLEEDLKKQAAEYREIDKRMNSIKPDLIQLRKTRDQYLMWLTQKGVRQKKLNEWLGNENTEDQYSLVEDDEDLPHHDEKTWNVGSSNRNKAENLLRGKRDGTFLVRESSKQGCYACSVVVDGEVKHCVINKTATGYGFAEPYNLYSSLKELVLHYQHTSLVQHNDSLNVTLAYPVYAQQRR

PI3Kβ IH % @ 1 uM (p110β/p85α) [%] | IC50 (p110β/p85α) [µM] | PI3Kδ IH % @ 1 uM (p110δ/p85α) [%] | IC50 (p110δ/p85α) [µM] | PI3Kγ IH % @ 1 uM (p110γ) [%] | IC50 (p110γ) [µM] | SMILES
79.0 | 0.275 | 98.0 | 0.003 | 88.6 | 0.025 | CS(=O)(=O)[C@H]1C[C@@H](c2nn3ccc(Cl)c3c(=O)n2-c2ccccc2)N(c2ncnc3[nH]cc(C#N)c23)C1 [Compound 365, 4-((2S,4S)-2-(5-chloro-4-oxo-3-phenyl-3,4-dihydropyrrolo[2,1-f][1,2,4]triazin-2-yl)-4-(methylsulfonyl)pyrrolidin-1-yl)-7H-pyrrolo[2,3-d]pyrimidine-5-carbonitrile]
74.4 | 0.3 | 97.1 | 0.011 | 86.8 | 0.089 | CS(=O)(=O)[C@H]1C[C@@H](c2nn3ccc(Cl)c3c(=O)n2-c2ccccc2)N(c2ncnc3[nH]cnc23)C1 [Compound 366]
68.8 | 0.242 | >100 | 0.002 | 90.4 | 0.003 | CC(=O)c1cnc(N)nc1N1CCC[C@H]1c1nn2ccc(Cl)c2c(=O)n1-c1ccccc1 [Compound 369, (S)-2-(1-(5-acetyl-2-aminopyrimidin-4-yl)pyrrolidin-2-yl)-5-chloro-3-phenylpyrrolo[2,1-f][1,2,4]triazin-4(3H)-one]
17.5 | – | 89.8 | 0.07 | 74.4 | 0.317 | N#Cc1c[nH]c2ncnc(N3CC[C@H]3c3nn4ccc(Cl)c4c(=O)n3CC3CC3)c12 [Compound 371, (S)-4-(2-(5-chloro-3-(cyclopropylmethyl)-4-oxo-3,4-dihydropyrrolo[2,1-f][1,2,4]triazin-2-yl)azetidin-1-yl)-7H-pyrrolo[2,3-d]pyrimidine-5-carbonitrile]
42.6 | – | 84.8 | 0.1 | 87.7 | 0.297 | CS(=O)(=O)CCn1c([C@@H]2CCCN2c2ncnc3[nH]cnc23)nn2ccc(Cl)c2c1=O [Compound 372]
58.7 | 0.517 | – | 0.004 | – | 0.155 | O=c1c2c(Cl)ccn2nc([C@@H]2CCCN2c2ncnc3[nH]cnc23)n1C1CCC1 [Compound 374]
32.9 | – | 92.6 | 0.043 | 65.7 | – | N#Cc1c[nH]c2ncnc(N3CC[C@H]3c3nn4ccc(Cl)c4c(=O)n3C3CCC3)c12 [Compound 375]
54.8 | – | 99.1 | 0.006 | 93.2 | 0.026 | N#Cc1cnc(N)nc1N1CCC[C@H]1c1nn2ccc(Cl)c2c(=O)n1C1CCC1 [Compound 376]
39.8 | – | 98.0 | 0.034 | 96.3 | 0.045 | Cc1nc(N)nc(N2CC[C@H]2c2nn3ccc(Cl)c3c(=O)n2-c2ccccc2)c1Cl [Compound 377, (S)-2-(1-(2-amino-5-chloro-6-methylpyrimidin-4-yl)azetidin-2-yl)-5-chloro-3-phenylpyrrolo[2,1-f][1,2,4]triazin-4(3H)-one]
34.5 | – | 87.2 | 0.22 | >100 | 0.179 | COc1nc(N)nc(N2CC[C@H]2c2nn3ccc(Cl)c3c(=O)n2-c2ccccc2)c1C#N [Compound 378, (S)-2-amino-4-(2-(5-chloro-4-oxo-3-phenyl-3,4-dihydropyrrolo[2,1-f][1,2,4]triazin-2-yl)azetidin-1-yl)-6-methoxypyrimidine-5-carbonitrile]
14.5 | – | – | 0.059 | – | 0.035 | Nc1nc2c(c(N3CC[C@H]3c3nn4ccc(Cl)c4c(=O)n3-c3ccccn3)n1)C(=O)CCN2 [Compound 379]
87.8 | 0.065 | 98.0 | 0.001 | >100 | 0.01 | N#Cc1c[nH]c2ncnc(N3CC(=O)C[C@H]3c3nn4ccc(Cl)c4c(=O)n3-c3ccccc3)c12 [Compound 380, (S)-4-(2-(5-chloro-4-oxo-3-phenyl-3,4-dihydropyrrolo[2,1-f][1,2,4]triazin-2-yl)-4-oxopyrrolidin-1-yl)-7H-pyrrolo[2,3-d]pyrimidine-5-carbonitrile]
– | 0.199 | – | 0.003 | – | 0.029 | O=C1C[C@@H](c2nn3ccc(Cl)c3c(=O)n2-c2ccccc2)N(c2ncnc3[nH]cnc23)C1 [Compound 381]
24.7 | – | 91.0 | 0.24 | 53.6 | – | C[C@@H](Nc1nc(N)ncc1C#N)c1cc2ncc(Cl)n2c(=O)n1-c1ccccc1 [Compound 384, (R)-2-amino-4-((1-(3-chloro-5-oxo-6-phenyl-5,6-dihydroimidazo[1,2-c]pyrimidin-7-yl)ethyl)amino)pyrimidine-5-carbonitrile]
69.3 | – | 96.2 | 0.002 | 80.7 | 0.173 | C[S@+]([O-])c1c[nH]c2ncnc(N3CCC[C@H]3c3nn4ccc(Cl)c4c(=O)n3-c3ccccn3)c12 [Compound 388, 5-chloro-2-((S)-1-(5-((S)-methylsulfinyl)-7H-pyrrolo[2,3-d]pyrimidin-4-yl)pyrrolidin-2-yl)-3-(pyridin-2-yl)pyrrolo[2,1-f][1,2,4]triazin-4(3H)-one]
0.1 | – | 91.4 | 0.185 | 90.5 | 0.129 | C[S@@+]([O-])c1c[nH]c2ncnc(N3CC[C@H]3c3nn4ccc(Cl)c4c(=O)n3-c3ccccn3)c12 [Compound 391, 5-chloro-2-((S)-1-(5-((R)-methylsulfinyl)-7H-pyrrolo[2,3-d]pyrimidin-4-yl)azetidin-2-yl)-3-(pyridin-2-yl)pyrrolo[2,1-f][1,2,4]triazin-4(3H)-one]
67.2 | – | 95.9 | 0.011 | 89.1 | 0.062 | C[S@+]([O-])c1c[nH]c2ncnc(N3C[C@@H](F)C[C@H]3c3nn4ccc(Cl)c4c(=O)n3-c3cccc(F)c3)c12 [Compound 392, 5-chloro-2-((2S,4S)-4-fluoro-1-(5-((S)-methylsulfinyl)-7H-pyrrolo[2,3-d]pyrimidin-4-yl)pyrrolidin-2-yl)-3-(3-fluorophenyl)pyrrolo[2,1-f][1,2,4]triazin-4(3H)-one]
35.2 | – | 94.7 | 0.009 | 90.7 | 0.009 | C[S@@+]([O-])c1c[nH]c2ncnc(N3C[C@@H](F)C[C@H]3c3nn4ccc(Cl)c4c(=O)n3-c3cccc(F)c3)c12 [Compound 393, 5-chloro-2-((2S,4S)-4-fluoro-1-(5-((R)-methylsulfinyl)-7H-pyrrolo[2,3-d]pyrimidin-4-yl)pyrrolidin-2-yl)-3-(3-fluorophenyl)pyrrolo[2,1-f][1,2,4]triazin-4(3H)-one]
86.1 | 0.369 | >100 | 0.002 | 94.1 | 0.017 | C[S@+]([O-])c1c[nH]c2ncnc(N3CCC[C@H]3c3nn4ccc(F)c4c(=O)n3-c3ccccc3)c12 [Compound 396, 5-fluoro-2-((S)-1-(5-((S)-methylsulfinyl)-7H-pyrrolo[2,3-d]pyrimidin-4-yl)pyrrolidin-2-yl)-3-phenylpyrrolo[2,1-f][1,2,4]triazin-4(3H)-one]
52.0 | 2.35 | >100 | 0.011 | 96.5 | 0.013 | C[S@@+]([O-])c1c[nH]c2ncnc(N3CCC[C@H]3c3nn4ccc(F)c4c(=O)n3-c3ccccc3)c12 [Compound 397, 5-fluoro-2-((S)-1-(5-((R)-methylsulfinyl)-7H-pyrrolo[2,3-d]pyrimidin-4-yl)pyrrolidin-2-yl)-3-phenylpyrrolo[2,1-f][1,2,4]triazin-4(3H)-one]
22.6 | – | 99.1 | 0.025 | >100 | 0.018 | CC(=O)c1c(C)nc(N)nc1N1CC[C@H]1c1nn2ccc(Cl)c2c(=O)n1-c1ccccc1 [Compound 398]
3.5 | – | 35.1 | – | 70.3 | – | C[S+]([O-])c1cnc(N)nc1N1CC[C@H]1c1nn2ccc(Cl)c2c(=O)n1-c1ccccc1 (stereo partly shown) [Compound 399]
22.2 | – | >100 | 0.012 | 70.4 | 0.081 | O=C1C[C@@H](c2nn3ccc(F)c3c(=O)n2-c2ccccc2)N(c2ncnc3[nH]cnc23)C1 [Compound 400]
46.7 | – | >100 | 0.004 | 67.8 | 0.189 | N#Cc1cnc(N)nc1N1CC(=O)C[C@H]1c1nn2ccc(F)c2c(=O)n1-c1ccccc1 [Compound 401]
21.7 | – | 93.4 | 0.067 | 65.8 | – | CC(=O)c1c[nH]c2ncnc(N3CC(=O)C[C@H]3c3nn4ccc(Cl)c4c(=O)n3-c3ccccc3)c12 [Compound 402]
